Measured values taken from patent publication US5571819A, “Imidazopyridines as muscarinic agents” (priority 1994, dated 1996).
Like-named read-outs stand apart in the source and are kept apart here.

Columns and labels:
[1] = system: patients with mild to moderate Alzheimer's Disease; conditions: cited from earlier work; for improvement in memory in patients: mild to moderate Alzheimer's Disease
[2] = in vivo; cited from earlier work
[3] = biological target: T1, ml receptors (muscarinic receptor subtypes) (Homo sapiens, UniProt P11229); test: biochemical; type: binding
T1 sequence (P11229 1-460): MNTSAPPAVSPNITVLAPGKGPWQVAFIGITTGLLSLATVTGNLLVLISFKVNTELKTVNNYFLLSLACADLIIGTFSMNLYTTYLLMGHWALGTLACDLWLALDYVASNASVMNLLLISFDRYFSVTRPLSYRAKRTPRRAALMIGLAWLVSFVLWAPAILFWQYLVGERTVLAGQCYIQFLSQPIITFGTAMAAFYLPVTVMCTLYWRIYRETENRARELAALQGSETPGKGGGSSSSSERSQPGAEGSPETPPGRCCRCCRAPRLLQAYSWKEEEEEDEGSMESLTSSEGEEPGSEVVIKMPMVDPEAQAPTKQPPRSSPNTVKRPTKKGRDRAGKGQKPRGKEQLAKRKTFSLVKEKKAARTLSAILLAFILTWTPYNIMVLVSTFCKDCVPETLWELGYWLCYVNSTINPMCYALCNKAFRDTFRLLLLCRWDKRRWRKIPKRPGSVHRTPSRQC

[4] = biological target: T2, M1 acetylcholine receptors (Homo sapiens, UniProt P11229); test: Stimulation of phosphoinositide (PI) hydrolysis in CHO cells expressing M1 acetylcholine receptors; type: cell-based; conditions: 1 h, read-out: % PI Hydrolysis ml receptors in CHO cells maximum %, carbachol = 100%
T2 sequence (P11229 1-460): T1 sequence (P11229 1-460)

[5] = ml 3H QNB Binding in CHO cells Ki (μM), [3H]QNB 0.23 nM, 37 °C, 1 hour, CHO cells, ml
[6] = read-out: ml 3H QNB Binding in CHO cells Ki, [3H]QNB 0.23 nM, 37 °C, 1 hour, CHO cells, ml

Compound | Ki [3, 5] [µM] | also measured
COC(=O)C1=CCCN(C)C1 [arecoline] |  | improvement in memory in patients [1]: memory improvement in patients with mild to moderate Alzheimer's Disease; half-life [2]: short half-life
Cn1cnc2c(O[C@H]3CN4CC[C@@H]3C4)ncnc21 (relative stereo) [Example 9, endo-6-(1Aza-bicyclo[2.2,1]hept-3-yloxy)-9-methylpurine] | 27 | 
c1ccc(Cn2cnc3c(OC4CN5CCC4CC5)nccc32)cc1 (stereo not drawn) [Example 5, 3-(1-Benzyl-1H-imidazo[4,5-c]pyridin-4-yloxy)-1-aza-bicyclo[2.2.2]octane] | 3.85 | 
Cn1c(C2(O)CN3CCC2CC3)nc2ncccc21 (stereo not drawn) [Example 13, 3-(1-Methyl-1H-imidazo[4,5-b]pyridin-2-yl)-1-aza-bicyclo[2.2.2]octan-3-ol] |  | Ki [3, 6]: 1.42 µM
Cn1cnc2c(O[C@H]3CN4CC[C@@H]3C4)nccc21 (single isomer, unassigned) [Example 3, (-)-endo-4-(1-Aza-bicyclo[2.2.1]hept-3-yloxy)-1-methyl-1H-imidazo[4,5-c]pyridine] | 14.2 | Emax [4]: 26.2%
c1ccc(Cn2cnc3c(OC4CN5CCC4CC5)nccc32)cc1 (single isomer, unassigned; (+)) [Example 6, (+)-3-(1-Benzyl-1H-imidazo[4,5-c]pyridin-4-yloxy)-1-aza-bicyclo[2.2.2]octane] | 13.4 | 
OC1(c2nc3c(Cl)nccc3n2Cc2ccccc2)CN2CCC1CC2 (stereo not drawn) [Example 14, 3-(1-Benzyl-4-chloro-1H-imidazo[4,5-c]pyridin-2-yl)-1-azabicyclo[2.2.2]octan-3-ol] | 1.65 | 
Cn1cnc2c(O[C@H]3CN4CC[C@@H]3C4)nccc21 (relative stereo) [Example 1, endo-4-(1-Aza-bicyclo[2.2.1]hept-3-yloxy)-1-methyl-1H-imidazo[4,5-c]pyridine] | 19.3 | Emax [4]: 21.7%
CCN1CCCC(O)(c2nc3c(Cl)nccc3n2Cc2ccccc2)C1 (stereo not drawn) [Example 15, 3-(1-Benzyl-4-chloro-1H-imidazo[4,5-c]pyridin-2-yl)-1-ethyl-piperidin-3-ol] |  | Ki ([3]; read-out: ml 3H QNB Binding in CHO cells Ki): 9.3 µM
c1ccc(Cn2cnc3c(OC4CN5CCC4CC5)nccc32)cc1 (single isomer, unassigned) [Example 7, (--)-3-(1-Benzyl-1H-imidazo[4,5-c]pyridin-4-yloxy)-1-aza-bicyclo[2.2.2]octane] | 17.6 | 
Cn1cnc2c(O[C@@H]3CN4CC[C@@H]3C4)ncnc21 (relative stereo) [Example 10, exo-6-(1Aza-bicyclo[2,2.1]hept-3-yloxy)-9-methylpurine] | 17.1 | 
Nc1c2c(nc3ccccc13)CCCC2 [tacrine] |  | adverse side effects ([1]; especially at the higher doses): adverse side effects especially at the higher doses where it is most effective; improvement in memory in patients [1]: improvement in memory can be shown in patients with mild to moderate Alzheimer's Disease
Cn1cnc2c(O[C@@H]3CN4CC[C@@H]3C4)nccc21 (relative stereo) [Example 4, (exo)-4-(1-Aza-bicyclo[2,2,1]hept-3-yloxy)-1-methyl-1H-imidazo[4,5-c]pyridine] |  | Ki [3, 6]: 20.6 µM
Cn1cnc2c(OCC3CN4CCC3CC4)nccc21 (stereo not drawn) [Example 8, 3-(1-Methyl-1H-imidazo[4,5,c]pyridin-4-yloxymethyl)-1-aza-bicyclo[2.2.2]octane] | 2.65 | 
